Results as given in patent US20250144067A1, “PERSONALIZED STARVATION THERAPY FOR CANCER” (Faeth Therapeutics, Inc., priority 2021, published 2025).
Counter-ions that a name gives are not always drawn. Like-named read-outs stand apart in the source and are kept apart here.

Tests used:
[1] = tested on: NCI-H292 lung cancer cells; assay: FDA drug screening, complete media vs cholesterol-free media with simvastatin (TABLE 2); assay type: cell-based, human
[2] = tested on: NCI-H292 lung cancer cells; assay: FDA drug screening, complete media vs cholesterol-free media without statin (TABLE 1); assay type: cell-based, human
[3] = NCI-H292 cells, FDA library drug in cholesterol-free media with simvastatin 0.04 μM
[4] = NCI-H292 cells, FDA library drug in complete media
[5] = complete media vs cholesterol-free media + simvastatin (0.04 μM), >0 enhanced anti-cancer activity, about 0 neutral, <0 antagonist
[6] = Complete minus Cholesterol-free, greater than 0 enhanced anti-cancer activity, about 0 neutral, below 0 antagonists
[7] = NCI-H292 cells in cholesterol-free media without statin
[8] = NCI-H292 cells in complete media
[9] = NCI-H292 cells, cholesterol-free media with simvastatin 0.04 μM, cell growth value in FDA drug screen
[10] = NCI-H292 cells, complete media, cell growth value in FDA drug screen
[11] = complete media minus cholesterol-free media + simvastatin, >0 enhanced anti-cancer activity, about 0 neutral, <0 antagonist
[12] = NCI-H292 cells, cholesterol-free media without statin
[13] = complete vs cholesterol-free media, greater than 0 enhanced anti-cancer activity, about 0 neutral, below 0 antagonists
[14] = NCI-H292 cells, FDA drug library screen, cholesterol-free media with simvastatin 0.04 μM
[15] = NCI-H292 cells, FDA drug library screen, complete media
[16] = NCI-H292 cells, drug in cholesterol-free media with simvastatin 0.04 μM
[17] = NCI-H292 cells, drug in complete media
[18] = NCI-H292 cells, cholesterol-free media with simvastatin 0.04 μM, FDA drug library screen (TABLE 2)
[19] = NCI-H292 cells, complete media, FDA drug library screen (TABLE 2)
[20] = complete media minus cholesterol-free media + simvastatin (0.04 μM), >0 enhanced anti-cancer activity, about 0 neutral, <0 antagonist
[21] = Complete minus Cholesterol-free, greater than 0 enhanced anti-cancer activity, about 0 neutral, below 0 antagonist
[22] = NCI-H292 cells, FDA drug library screen, cholesterol-free media without statin
[23] = NCI-H292 cells, cholesterol-free media without statin, FDA drug library screen
[24] = NCI-H292 cells, complete media, FDA drug library screen
[25] = complete vs cholesterol-free media, >0 enhanced anti-cancer activity, about 0 neutral, <0 antagonist
[26] = Complete minus Cholesterol-free, >0 enhanced anti-cancer activity, about 0 neutral, <0 antagonist

SMILES: C[C@H](Nc1ncnc2nc[nH]c12)c1cc2cccc(Cl)c2c(=O)n1-c1ccccc1 [Duvelisib]
- Cholesterol-free media + simvastatin (0.04 μM) [1, 3]: 1.228
- Complete Media [1, 4]: 0.8817
- Difference [1, 5]: −0.35
- Difference [2, 6]: −0.51
- Cholesterol-free [2, 7]: 1.444
- Complete [2, 8]: 0.9349

SMILES: CCCCOc1ccc(C(=O)CCN2CCCCC2)cc1 [Dyclonine (hydrochloride)]
- Cholesterol-free media + simvastatin (0.04 μM) [1, 9]: 0.8623
- Complete Media [1, 10]: 0.9661
- Difference [1, 11]: 0.10
- Cholesterol-free [2, 12]: 1.119
- Complete ([2]; NCI-H292 cells, complete media): 0.7824
- Difference [2, 13]: −0.34

SMILES: CC(=O)[C@H]1CC[C@H]2[C@@H]3C=CC4=CC(=O)CC[C@@]4(C)[C@@H]3CC[C@]12C [Dydrogesterone]
- Cholesterol-free media + simvastatin (0.04 μM) [1, 9]: 1.183
- Complete Media [1, 10]: 1.295
- Difference [1, 11]: 0.11
- Difference [2, 6]: −0.68
- Cholesterol-free [2, 7]: 1.745
- Complete [2, 8]: 1.064

SMILES: CC[C@H](C)C(=O)N1CCC(NC(=O)Nc2ccc(OC(F)(F)F)c(F)c2)CC1 [EC5026]
- Cholesterol-free media + simvastatin (0.04 μM) [1, 14]: 1.241
- Complete Media [1, 15]: 1.143
- Difference ([1]; complete media vs cholesterol-free media + simvastatin (0.04 μM), […]): −0.10
- Cholesterol-free [2, 12]: 1.148
- Complete ([2]; NCI-H292 cells, complete media): 0.7425
- Difference ([2]; complete vs cholesterol-free media, […]): −0.41

SMILES: CC(C)(C)c1ccc(C(=O)CCCN2CCC(OC(c3ccccc3)c3ccccc3)CC2)cc1 [Ebastine]
- Cholesterol-free media + simvastatin (0.04 μM) [1, 14]: 0.2638
- Complete Media [1, 15]: 1.066
- Difference [1, 11]: 0.80
- Difference [2, 6]: −0.60
- Cholesterol-free [2, 7]: 1.238
- Complete [2, 8]: 0.6382

SMILES: CC(C)c1cc2c(cc1S(=O)(=O)O)[C@@]1(C)CCC[C@@](C)(C(=O)O)[C@@H]1CC2 [Ecabet (sodium)]
- Cholesterol-free media + simvastatin (0.04 μM) [1, 16]: 1.124
- Complete Media [1, 17]: 0.9102
- Difference [1, 5]: −0.21
- Cholesterol-free [2, 12]: 1.17
- Complete ([2]; NCI-H292 cells, complete media): 0.8018
- Difference [2, 13]: −0.37

SMILES: CC1=NN(c2ccccc2)C(=O)C1 [Edaravone]
- Cholesterol-free media + simvastatin (0.04 μM) [1, 18]: 1.019
- Complete Media [1, 19]: 1.02
- Difference [1, 20]: 0.00
- Difference [2, 21]: −0.18
- Cholesterol-free [2, 22]: 1.236
- Complete [2, 15]: 1.052

SMILES: CN1CCc2nc(C(=O)N[C@@H]3C[C@@H](C(=O)N(C)C)CC[C@@H]3NC(=O)C(=O)Nc3ccc(Cl)cn3)sc2C1 [Edoxaban]
- Cholesterol-free media + simvastatin (0.04 μM) [1, 16]: 1.032
- Complete Media [1, 17]: 0.8097
- Difference [1, 5]: −0.22
- Cholesterol-free [2, 23]: 1.603
- Complete [2, 24]: 1.759
- Difference [2, 25]: 0.16

SMILES: CC[N+](C)(C)c1cccc(O)c1.[Cl-] [Edrophonium (chloride)]
- Cholesterol-free media + simvastatin (0.04 μM) ([1]; NCI-H292 cells, cholesterol-free media with simvastatin 0.04 μM, […]): 1.155
- Complete Media ([1]; NCI-H292 cells, complete media, […]): 1.199
- Difference ([1]; complete media minus cholesterol-free media + simvastatin, […]): 0.04
- Difference ([2]; Complete minus Cholesterol-free, […]): −0.15
- Cholesterol-free [2, 22]: 1.134
- Complete [2, 15]: 0.9821

SMILES: O=C1Nc2ccc(Cl)cc2[C@@](C#CC2CC2)(C(F)(F)F)O1 [Efavirenz]
- Cholesterol-free media + simvastatin (0.04 μM) [1, 9]: 1.215
- Complete Media [1, 10]: 1.301
- Difference [1, 11]: 0.09
- Cholesterol-free [2, 12]: 1.108
- Complete ([2]; NCI-H292 cells, complete media): 0.7866
- Difference [2, 13]: −0.32

SMILES: C=C1CCN([C@H](C)[C@](O)(Cn2cncn2)c2ccc(F)cc2F)CC1 [Efinaconazole]
- Cholesterol-free media + simvastatin (0.04 μM) [1, 14]: 0.5953
- Complete Media [1, 15]: 1.082
- Difference [1, 11]: 0.49
- Cholesterol-free [2, 12]: 1.307
- Complete ([2]; NCI-H292 cells, complete media): 0.8534
- Difference [2, 13]: −0.45

SMILES: NCCCC(N)(C(=O)O)C(F)F (centres unmarked) [Eflornithine (hydrochloride hydrate)]
- Cholesterol-free media + simvastatin (0.04 μM) [1, 16]: 1.426
- Complete Media [1, 17]: 1.224
- Difference [1, 5]: −0.20
- Difference [2, 26]: −0.22
- Cholesterol-free [2, 12]: 0.965
- Complete ([2]; NCI-H292 cells, complete media): 0.7419

SMILES: CCOC(=O)COc1ccc2c(=O)cc(-c3ccccc3)oc2c1 [Efloxate]
- Cholesterol-free media + simvastatin (0.04 μM) [1, 14]: 1.124
- Complete Media [1, 15]: 0.9754
- Difference [1, 5]: −0.15
- Cholesterol-free [2, 12]: 1.349
- Complete ([2]; NCI-H292 cells, complete media): 0.929
- Difference [2, 13]: −0.42

SMILES: CC/C=C\C/C=C\C/C=C\C/C=C\C/C=C\CCCC(=O)O [Eicosapentaenoic Acid]
- Cholesterol-free media + simvastatin (0.04 μM) [1, 14]: 1.13
- Complete Media [1, 15]: 1.471
- Difference [1, 11]: 0.34
- Difference [2, 21]: −0.10
- Cholesterol-free [2, 22]: 1.072
- Complete [2, 15]: 0.969

SMILES: COc1cccc(-c2c(C)n(Cc3c(F)cccc3C(F)(F)F)c(=O)n(C[C@H](NCCCC(=O)O)c3ccccc3)c2=O)c1F [Elagolix sodium]
- Cholesterol-free media + simvastatin (0.04 μM) [1, 14]: 1.413
- Complete Media [1, 15]: 1.627
- Difference [1, 11]: 0.21
- Difference [2, 6]: −0.93
- Cholesterol-free [2, 7]: 1.728
- Complete [2, 8]: 0.7978

SMILES: COC(=O)N[C@H](C(=O)N1CCC[C@H]1c1nc(-c2ccc3c(c2)O[C@@H](c2ccccc2)n2c-3cc3cc(-c4c[nH]c([C@@H]5CCCN5C(=O)[C@@H](NC(=O)OC)C(C)C)n4)ccc32)c[nH]1)C(C)C [Elbasvir]
- Cholesterol-free media + simvastatin (0.04 μM) [1, 18]: 0.9746
- Complete Media [1, 19]: 0.9378
- Difference [1, 20]: −0.04
- Difference [2, 6]: −0.70
- Cholesterol-free [2, 7]: 1.334
- Complete [2, 8]: 0.6346

SMILES: CN1CCC[C@@H]1Cc1c[nH]c2ccc(CCS(=O)(=O)c3ccccc3)cc12 [Eletriptan (hydrobromide)]
- Cholesterol-free media + simvastatin (0.04 μM) [1, 3]: 1.33
- Complete Media [1, 4]: 0.9128
- Difference [1, 5]: −0.42
- Cholesterol-free [2, 12]: 1.406
- Complete ([2]; NCI-H292 cells, complete media): 1.08
- Difference [2, 13]: −0.33

SMILES: CCCCCCCC(=O)N[C@H](CN1CCCC1)[C@H](O)c1ccc2c(c1)OCCO2 [Eliglustat]
- Cholesterol-free media + simvastatin (0.04 μM) [1, 3]: 1.086
- Complete Media [1, 4]: 0.6384
- Difference [1, 5]: −0.45
- Difference [2, 26]: −0.30
- Cholesterol-free [2, 12]: 1.155
- Complete ([2]; NCI-H292 cells, complete media): 0.8552

SMILES: CC1=NN(c2ccc(C)c(C)c2)C(=O)/C1=N\Nc1cccc(-c2cccc(C(=O)O)c2)c1O [Eltrombopag (Olamine)]
- Cholesterol-free media + simvastatin (0.04 μM) [1, 18]: 1.098
- Complete Media [1, 19]: 1.058
- Difference [1, 20]: −0.04
- Difference [2, 6]: −0.96
- Cholesterol-free [2, 7]: 1.745
- Complete [2, 8]: 0.7856

SMILES: CC1=NN(c2ccc(C)c(C)c2)C(=O)/C1=N\Nc1cccc(-c2cccc(C(=O)O)c2)c1O [Eltrombopag]
- Cholesterol-free media + simvastatin (0.04 μM) [1, 14]: 1.011
- Complete Media [1, 15]: 0.868
- Difference [1, 5]: −0.14
- Difference [2, 26]: −0.30
- Cholesterol-free [2, 12]: 1.47

SMILES: COc1cc2c(cc1Cc1cccc(Cl)c1F)c(=O)c(C(=O)O)cn2[C@H](CO)C(C)C [Elvitegravir]
- Cholesterol-free media + simvastatin (0.04 μM) [1, 14]: 1.032
- Complete Media [1, 15]: 1.435
- Difference [1, 11]: 0.40
- Difference [2, 6]: −0.83
- Cholesterol-free [2, 7]: 1.777
- Complete [2, 8]: 0.9448

SMILES: CCCCCCCCCCCC1=C(O)C(=O)C=C(O)C1=O [Embelin]
- Cholesterol-free media + simvastatin (0.04 μM) [1, 18]: 0.8998
- Complete Media [1, 19]: 0.8298
- Difference [1, 20]: −0.07
- Difference [2, 6]: −0.48
- Cholesterol-free [2, 7]: 1.567
- Complete [2, 8]: 1.082

SMILES: CCOCCn1c(N2CCCN(C)CC2)nc2ccccc21 [Emedastine]
- Cholesterol-free media + simvastatin (0.04 μM) [1, 9]: 0.8891
- Complete Media [1, 10]: 0.9093
- Difference [1, 11]: 0.02
- Difference [2, 26]: −0.27
- Cholesterol-free [2, 12]: 0.9896
- Complete ([2]; NCI-H292 cells, complete media): 0.7182

SMILES: CC[C@H]1CN2CCc3cc(OC)c(OC)cc3[C@@H]2C[C@@H]1C[C@H]1NCCc2cc(OC)c(OC)cc21 [Emetine (dihydrochloride hydrate)]
- Cholesterol-free media + simvastatin (0.04 μM) [1]: 0.05048
- Complete Media [1]: 0.03214
- Difference [1]: −0.02
- Cholesterol-free [2]: 0.02305
- Complete [2]: 0.04288
- Difference [2]: 0.02

SMILES: OC[C@H]1O[C@@H](c2ccc(Cl)c(Cc3ccc(O[C@H]4CCOC4)cc3)c2)[C@H](O)[C@@H](O)[C@@H]1O [Empagliflozin]
- Cholesterol-free media + simvastatin (0.04 μM) [1, 14]: 0.9749
- Complete Media [1, 15]: 0.8261
- Difference [1, 5]: −0.15
- Cholesterol-free [2, 23]: 0.7937
- Complete [2, 24]: 1.112
- Difference [2, 25]: 0.32

SMILES: Nc1nc(=O)n([C@@H]2CS[C@H](CO)O2)cc1F [Emtricitabine]
- Cholesterol-free media + simvastatin (0.04 μM) [1, 9]: 1.347
- Complete Media [1, 10]: 1.442
- Difference [1, 11]: 0.09
- Cholesterol-free [2, 23]: 0.9457
- Complete [2, 24]: 1.235
- Difference [2, 25]: 0.29

SMILES: C[C@H](N[C@@H](CCc1ccccc1)C(=O)O)C(=O)N1CCC[C@H]1C(=O)O.O.O [Enalaprilat (dihydrate)]
- Cholesterol-free media + simvastatin (0.04 μM) [1, 3]: 1.635
- Complete Media [1, 4]: 1.051
- Difference [1, 5]: −0.58
- Difference [2, 6]: −0.58
- Cholesterol-free [2, 7]: 1.525
- Complete [2, 8]: 0.949
